Source: patent publication US20060020042A1, “Memantine for the treatment of mild and mild to moderate Alzheimer's disease” (Forest Laboratories, Inc., priority 2004, published 2006)

Experiments:
[1] = test system: outpatients with mild-to-moderate Alzheimer's disease; assay: ADCS-ADL in randomized, double-blind, placebo-controlled study; format: in vivo, human; conditions: Week 24, ITT, 20 mg/day
Procedure: In the study of the present invention, there were approximately 400 patients enrolled across 42 centers. Evaluation of primary efficacy was achieved by Alzheimer's Disease Assessment Scale-cognitive subscale (ADAS-cog) and the Clinician's Interview-Based Impression of Change including caregiver information (CIBIC-plus). Secondary efficacy was determined using Alzheimer's disease Cooperative Study-Activities of Daily Living (ADCS-ADL) and Neuropsychiatric Inventory (NPI) criteria. The ADCS-ADL inventory consists of 23 questions used to measure the functional capabilities of patients with dementia. These questions are selected from a larger set of 49 questions in the original ADL scale. A more common selection is of 19 questions from the same 49 question group. Each ADL item comprises a series of hierarchical sub-questions, ranging from the highest level of independent performance of each ADL to complete loss. The ADSC-ADL Inventory total score ranges from 0 (lower functioning status) to 78 (higher functioning status). A higher score indicates a better functioning status. […] Results were evaluated over seven clinical visits; at initial screening, baseline, and the end of weeks 4, 8, 12, 18 and 24. […] Descriptive statistics were calculated by visit. […]

[2] = test system: outpatients with mild-to-moderate Alzheimer's disease; assay: CIBIC-plus in randomized, double-blind, placebo-controlled study; format: in vivo, human; conditions: for CIBIC+ Non-Responder, number of patients / CIBIC+ Responder (ratings 1-4), number of patients / CIBIC+ Difference (memantine minus placebo, mean): Week 24, ITT; for CIBIC+ Difference (memantine minus placebo, mean): 20 mg/day
Text: The present invention is based on results from a randomized, double-blind, placebo-controlled, multi-center, parallel-group study comparing memantine to placebo in outpatients diagnosed with probable AD according to […] criteria. Severity of mild to moderate was established using the Mini-Mental State Examination (MMSE) score (≧10 and ≦22; 0 is the lowest score and 30 is the highest score). In the study of the present invention, there were approximately 400 patients enrolled across 42 centers. Evaluation of primary efficacy was achieved by Alzheimer's Disease Assessment Scale-cognitive subscale (ADAS-cog) and the Clinician's Interview-Based Impression of Change including caregiver information (CIBIC-plus). Secondary efficacy was determined using Alzheimer's disease Cooperative Study-Activities of Daily Living (ADCS-ADL) and Neuropsychiatric Inventory (NPI) criteria. The CIBIC-Plus is a global rating that was derived through an independent, comprehensive interview with the patient and caregiver by an experienced rater/clinician who was barred from knowledge of all other psychometric test scores (after Baseline visit) conducted as part of this protocol and who is not otherwise familiar with the patient. Scores 1-3 indicate improvement; Score 4 indicates no change (as compared to baseline); Scores 5-7 indicate worsening. The CIBIC rater assessed disease severity at Baseline. Using the results from Baseline for reference, the rater then interviewed the patient and caregiver at the end of Weeks 4, 8, 12, 18 and 24 (or upon early termination), to obtain an “Impression of Change” rating. The format for this scale was derived from the Alzheimer's Disease Cooperative Study-Clinician's Global Impression of Change scale (ADCS-CGIC) (Schneider, L. et al, Alzheimer Dis Assoc Disord. 1997; 11 Suppl 2:S22-32). The CIBIC-plus was administered at each clinic visit starting with the Baseline visit. A “responder” is defined as a patient for whom the change from baseline (Visit 2) to Week 24 in ADAS-cog is less than or equal to -4. […] Results were evaluated over seven clinical visits; at initial screening, baseline, and the end of weeks 4, 8, 12, 18 and 24. The population of patients who received at least one dose of double-blind memantine, and completed at least one post-baseline efficacy evaluation of either the ADAS-cog or the CIBIC-plus is designated the “intent-to-treat” (ITT) population. The population of randomized patients who received at least one dose of double-blind study medication is designated the “safety population”. The randomized population designates all patients randomized into the study. This study was conducted as a fixed-dose study. All patients assigned to the memantine group received an initial dose of 5 mg per day; the dose was titrated in 5 mg weekly increments to a final dose of 20 mg/day (administered as two 5 mg tablets twice a day). Study drug was provided as blister packs containing masked study medication such that placebo and memantine tablets were visually identical, and all patients received four tablets of study medication daily (in combinations of memantine 5 mg tablets and matching placebo tablets). Transient dose adjustments were permitted between weeks 3 and 8 for patients experiencing dose-limiting adverse events. However, all patients were required to receive the target dose of 20 mg/day by the end of week 8. Patients not able to tolerate the target dose by week 8 were discontinued from the study. The CIBIC-plus rating was analyzed using the CMH test, controlling for study center ([…]). Descriptive statistics were calculated by visit.

NMDA receptor = conditions: uncompetitive antagonist; cited from earlier work
[3] = LOCF, ITT, of 196 patients randomized to memantine

CC12CC3CC(C)(C1)CC(N)(C3)C2 [Memantine, 1-amino-3,5-dimethyladamantane]
ADCS-ADL Difference (memantine minus placebo, LS mean) ([1]; LOCF analysis, p=0.890): 0.1 | ADCS-ADL Difference (memantine minus placebo, LS mean) ([1]; OC analysis, p=0.975): 0.0 | CIBIC-plus marked improvement, number of patients [2, 3]: 9 patients | CIBIC-plus marked worsening, number of patients [2, 3]: 1 patients | CIBIC-plus moderate improvement, number of patients [2, 3]: 27 patients | CIBIC-plus moderate worsening, number of patients [2, 3]: 18 patients | CIBIC-plus marked worsening, number of patients ([2]; OC analysis): 1 patients | CIBIC-plus minimal improvement, number of patients ([2]; OC analysis): 24 patients | CIBIC-plus moderate improvement, number of patients ([2]; OC analysis): 8 patients | CIBIC-plus moderate worsening, number of patients ([2]; OC analysis): 17 patients | CIBIC+ Non-Responder, number of patients ([2]; LOCF analysis): 64 patients | CIBIC+ Responder (ratings 1-4), number of patients ([2]; LOCF analysis): 132 patients | CIBIC+ Difference (memantine minus placebo, mean) ([2]; LOCF analysis, p=0.004): −0.32 | CIBIC+ Non-Responder, number of patients ([2]; LOCF analysis, listed as Mem): 97/64 patients | CIBIC+ Responder (ratings 1-4), number of patients ([2]; LOCF analysis, listed as Mem): 100/132 patients | CIBIC+ Non-Responder, number of patients ([2]; OC analysis): 56 patients | CIBIC+ Responder (ratings 1-4), number of patients ([2]; OC analysis): 108 patients | CIBIC+ Difference (memantine minus placebo, mean) ([2]; OC analysis, p=0.030): −0.26 | CIBIC+ Non-Responder, number of patients ([2]; OC analysis, listed as Mem): 81/56 patients | CIBIC+ Responder (ratings 1-4), number of patients ([2]; OC analysis, listed as Mem): 85/108 patients | CIBIC-plus, memantine-treated group compared with placebo ([2]; by week 12, LOCF and OC): statistically significant improvement | affinity for the NMDA receptor (NMDA receptor): moderate affinity
